Experimental data as given in US11953435B2, “Zinc-responsive fluorophores” (Northwestern University, priority 2019, dated 2024).
Entries after “also recorded” stand apart in the source; their conditions may differ.

Key:
[1] = Zinc dissociation constant, fluorescence titration in buffered EGTA-zinc solution; assay type: binding; settings: for Kd: 200 nM probe, 50 mM HEPES, 0.1 M KNO3, pH 7.2, 10 mM EGTA; for affinity for zinc (in words): compared to other probes
Protocol: (§1) Aqueous solutions were prepared by using de-ionized water with resistivity […], obtained using a Milli-Q water purification system. In order to properly compare the photophysical properties of ZincBY-2, ZincBY-3, and ZincBY-4 to ZincBY-1, the photophysical properties of ZincBY-1 we remeasured. […] Stock solutions of ZincBY-1, ZincBY-2, ZincBY-3, and ZincBY-4 were prepared at concentrations of 5 mM and stored at −20° C. in aliquots that were used immediately after thawing for each experiment. Unless otherwise stated, all spectroscopic methods were conducted in aqueous buffer containing 50 mM HEPES (pH 7.2) and 0.1 M KNO3. UV-visible spectra were acquired on a PerkinElmer Lambda 650 UV/Vis spectrophotometer using quartz cuvettes from Starna (1 cm path length, 10 cm path length used in extinction coefficient and quantum yield determination). Fluorescence spectra were acquired using a PerkinElmer LS 55 fluorescence spectrophotometer. For measurements containing zinc, 99.0% ZnNO3 hexahydrate (final concentration 5 μM) was used. For experiments analyzing apo probes, N,N,N′,N′-Tetrakis(2-pyridylmethyl)ethylenediamine (TPEN) (final concentration 5 μM) was added to solution. Quantum Yield and Extinction Coefficient Determination. Quantum yields for apo and holo ZincBY-1, ZincBY-2, ZincBY-3, and ZincBY-4 were determined by plotting absorbance vs. fluorescence intensity of solutions containing ZincBY-1, ZincBY-2, ZincBY-3, or ZincBY-4 at probe concentrations ranging from 50-250 nM. Serial dilution was used to make solutions at different concentrations. Fluorescein dissolved in 0.1 N NaOH was used as the quantum yield standard, using a literature-determined quantum yield of 0.95.^3 For all fluorophore solutions, fluorescence excitation was set at 490 nm and fluorescence emission was integrated from 510 nm to 650 nm. Zinc Dissociation Constant. Fluorescence spectra were recorded using zinc probes (ZincBY-1, ZincBY-2, ZincBY-3, or ZincBY-4; 200 nM) and ZnSO4 (various concentrations). The solutions were equilibrated in the dark for 1 h prior to measurement. The concentration of ZnSO4 was varied from 1 μM to 9 mM in buffer solution (50 mM HEPES and 0.1 M KNO3, and pH 7.2) containing 10 mM EGTA. Free Zn^2+ was calculated according to a previously reported method (Ref. B4; incorporated by reference in its entirety). Data was fit to the following one-site binding equation: F=(FminKd+Fmax[Zn^2+])/(Kd+[Zn^2+]) pH Response. The fluorescence spectra of zinc probes (ZincBY-2, ZincBY-3, or ZincBY-4; 200 nM) wasere measured at various pH values (4.5-11). The following buffers were used at 50 mM concentration with 0.1 M KNO3: NaOAc/AcOH (pH 4.0-4.5), MES (pH 5.0-6.5), HEPES (pH 7.0-8.0), CHES (pH 8.5-9.5), CAPS (pH 10.0-11.0). Metal Ion Response. The fluorescence spectra of zinc probes (ZincBY-2, ZincBY-3, or ZincBY-4; 200 nM) were measured in the presence an excess of metal ion including 1 mM KNO3, 1 mM NaNO3, 1 mM CaSO4, 1 mM MgSO4, 15 μM MnSO4, 15 μM (NH4)2Fe(SO4)2, 15 μM NH4Fe(SO4)2, 15 μM CoSO4, 15 μM NiSO4, 15 μM CuSO4, 15 μM [Cu(CH3CN)4]PF6, 15 μM CdSO4, 15 μM Hg(NO3)2, 15 μM Pb(NO3)2, or 15 μM ZnSO4. The fluorescence spectra were compared to that of ZincBY-2 (200 nM), ZincBY-3 (200 nM), or ZincBY-4 (200 nM) in the presence of 10 μM TPEN. Determination of octanol-water partition coefficients (log P). A log P value for each probe was determined by agitating nanomolar solutions of each probe in a 1:1 mixture of HEPES buffer and 1-octanol. Solutions were allowed to settle for 1 h and then the fluorescence intensity of each phase was measured. Standard curves of the fluorescence of known concentrations of probes in both solutions were used to determine concentrations.

[2] = pH response of fluorescence; assay type: physicochemical; settings: for pH-dependent fluorescence changes: holo and apo forms, physiological pH range (pH 4-8); for fluorescence changes of the Apo probe with pH: Apo (TPEN); for fluorescence changes of the Apo probe with pH / pH range in which fluorescence of the Zn-bound probe is stable: buffers at various pHs
Protocol: as §1

[3] = Metal ion response / selectivity of fluorescence; settings: for metal ions that inhibit the zinc response: other metal ions in the presence of excess zinc; for fluorescence response to toxic metals (Cd, Hg, Pb): relative fluorescence intensity; for metal ions to which the probe does not respond: relative fluorescence intensity in the presence of other metal ions
Protocol: as §1

Compound	Kd [1] [nM]	pH-dependent fluorescence changes [2]	preference for Zn(II) over other biologically relevant metal ions [3]	affinity for zinc weaker than that of ZincBY-1 ([1]; relative to ZincBY-1)	fluorescence changes of the Apo probe with pH [2]	pH range in which fluorescence of the Zn-bound probe is stable [2]	metal ions that inhibit the zinc response [3]	fluorescence response to toxic metals (Cd, Hg, Pb) [3]	metal ions to which the probe does not respond [3]	affinity for zinc (in words) [1]	affinity for zinc higher than that of ZincBY-1 ([1]; relative to ZincBY-1) [fold]
COc1ccc2n1[B-](F)(F)[N+]1=C(N(CCN(Cc3ccccn3)Cc3ccccn3)Cc3ccccn3)C=CC1=C2c1c(C)cc(C)cc1C [ZincBY-1, reference compound]	3.72 ± 0.87	neither the holo or apo forms of ZincBY-1 and ZincBY-4 show significant changes in fluorescence	responds preferentially to Zn(II) relative to other biologically relevant metal ions	–	–	–	–	–	–	–	–
Cc1cc(C)c(C2=C3C=CC(OCCN=[N+]=[N-])=[N+]3[B-](F)(F)n3c2ccc3N(CCN(Cc2ccccn2)Cc2ccccn2)Cc2ccccn2)c(C)c1 [ZincBY-2, N1-(7-(2-azidoethoxy)-5,5-difluoro-10-mesityl-5H-4λ4,5λ4-dipyrrolo[1,2-c:2′,1′-f][1,3,2]diazaborinin-3-yl)-N1,N2,N2-tris(pyridin-2-ylmethyl)ethane-1,2-diamine]	18.1 ± 2.6	–	–	five-fold weaker	largely unaffected by changes in pH	4.5-8.0 pH	does not fluoresce in the presence of Cu(I) and Cu(II), and these ions inhibit the zinc response	exhibits an increase in fluorescence in response to toxic metals Cd and Hg, but does not respond to Pb	does not respond to changes in K, Na, Ca, Mg, Mn, Fe, Co, or Ni concentration	–	–
Cc1cc(C)c(C2=C3C=CC(OCCN)=[N+]3[B-](F)(F)n3c2ccc3N(CCN(Cc2ccccn2)Cc2ccccn2)Cc2ccccn2)c(C)c1 [ZincBY-3, N1-(7-(2-aminoethoxy)-5,5-difluoro-10-mesityl-5H-4λ4,5λ4-dipyrrolo[1,2-c:2′,1′-f][1,3,2]diazaborinin-3-yl)-N1,N2,N2-tris(pyridin-2-ylmethyl)ethane-1,2-diamine]	0.0977 ± 0.0261	–	–	–	largely unaffected by changes in pH	4-8 pH	does not fluoresce in the presence of Cu(I) or Cu(II), and these ions inhibit the zinc response; also recorded: Fe(II) and Fe(III) also seem to inhibit a zinc response	exhibits a fluorescence response to the toxic metals Cd, Hg, and Pb	does not respond to changes in K, Na, Ca, Mg, Mn, Co, or Ni concentration	sub-nanomolar	38
CC(=O)NCCOc1ccc2n1[B-](F)(F)[N+]1=C(N(CCN(Cc3ccccn3)Cc3ccccn3)Cc3ccccn3)C=CC1=C2c1c(C)cc(C)cc1C [ZincBY-4, N-(2-((7-((2-(bis(pyridin-2-ylmethyl)amino)ethyl)(pyridin-2-ylmethyl)amino)-5,5-difluoro-10-mesityl-5H-5λ4,6λ4-dipyrrolo[1,2-c:2′,1′-f][1,3,2]diazaborinin-3-yl)oxy)ethyl)acetamide]	0.229 ± 0.0184	neither the holo or apo forms of ZincBY-1 and ZincBY-4 show significant changes in fluorescence	responds preferentially to Zn(II) relative to other biologically relevant metal ions	–	largely unaffected by changes in pH	4-8 pH	does not fluoresce in the presence of Cu(II) or Hg, and these ions inhibit the zinc response; also recorded: Fe(II), Fe(III), and Co also seem to inhibit the zinc response	exhibits a fluorescence response to the toxic metals Cd, and Pb	does not respond to changes in K, Na, Ca, Mg, Mn, Ni, or Cu(I) concentration	sub-nanomolar	–
